Experimental data taken from patent publication US20250002471A1 (Gilead Sciences, Inc., priority 2020, published 2025).

How the values were obtained:
TLR9 = target: T1, TLR9 (Homo sapiens, UniProt Q9NR96); assay: Human PBMC cell-based assay, TLR9 agonist ODN-2216 stimulation, cytokine (IL-6 and IFNα) readout; settings: human PBMCs, ODN-2216 3 μM, 6 hours; Table 26; read-out: TLR-9 EC50
T1 construct: lymphocytes, monocytes and dendritic cells that express TLR7, TLR8 and TLR9; endogenous in cells; host or cells: human PBMCs from healthy donors
T1 sequence (Q9NR96 26-1032): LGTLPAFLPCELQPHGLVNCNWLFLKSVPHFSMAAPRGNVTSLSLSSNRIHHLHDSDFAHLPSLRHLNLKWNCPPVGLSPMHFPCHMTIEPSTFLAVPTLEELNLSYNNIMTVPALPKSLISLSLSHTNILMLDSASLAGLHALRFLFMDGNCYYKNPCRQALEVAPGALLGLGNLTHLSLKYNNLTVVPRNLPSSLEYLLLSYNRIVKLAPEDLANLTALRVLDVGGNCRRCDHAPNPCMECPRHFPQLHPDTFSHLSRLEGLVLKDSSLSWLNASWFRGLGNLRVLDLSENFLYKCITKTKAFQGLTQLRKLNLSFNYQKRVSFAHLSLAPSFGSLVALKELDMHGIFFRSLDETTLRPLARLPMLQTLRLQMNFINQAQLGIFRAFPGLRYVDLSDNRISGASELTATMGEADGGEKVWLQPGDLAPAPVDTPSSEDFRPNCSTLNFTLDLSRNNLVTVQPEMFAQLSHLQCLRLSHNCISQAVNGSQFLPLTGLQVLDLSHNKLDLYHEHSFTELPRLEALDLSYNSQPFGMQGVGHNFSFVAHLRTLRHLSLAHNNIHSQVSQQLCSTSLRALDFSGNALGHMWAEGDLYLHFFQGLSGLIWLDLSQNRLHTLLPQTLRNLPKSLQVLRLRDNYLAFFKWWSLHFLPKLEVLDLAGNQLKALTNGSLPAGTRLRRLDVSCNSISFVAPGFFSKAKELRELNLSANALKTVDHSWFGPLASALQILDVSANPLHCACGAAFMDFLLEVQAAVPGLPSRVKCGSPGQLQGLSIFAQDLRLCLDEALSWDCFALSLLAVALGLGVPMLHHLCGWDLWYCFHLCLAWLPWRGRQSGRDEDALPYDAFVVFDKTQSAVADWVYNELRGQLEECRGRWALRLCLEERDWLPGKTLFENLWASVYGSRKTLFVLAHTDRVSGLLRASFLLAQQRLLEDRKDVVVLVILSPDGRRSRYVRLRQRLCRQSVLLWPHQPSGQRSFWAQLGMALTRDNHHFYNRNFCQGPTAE
Outline: (§1)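 Cryopreserved healthy-donor PBMCs (100,000 cells/well, RPMI-1640 + 10% FBS) preincubated 1 h at 37 °C with antagonist (10-point dose response), then stimulated 6 h with GS-986 (400 nM final, TLR7) or ODN-2216 (3 μM final, TLR9). Supernatant IL-6 and IFNα measured by electrochemiluminescence immunoassay; EC50 from sigmoidal fit.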

TLR7 = target: T2, TLR7 (Homo sapiens, UniProt Q9NYK1); assay: Human PBMC cell-based assay, TLR7 agonist GS-986 stimulation, cytokine (IL-6 and IFNα) readout; settings: human PBMCs, GS-986 400 nM, 6 hours; Table 26; read-out: TLR-7 EC50
T2 construct: lymphocytes, monocytes and dendritic cells that express TLR7, TLR8 and TLR9; endogenous in cells; host or cells: human PBMCs from healthy donors
T2 sequence (Q9NYK1 27-1049): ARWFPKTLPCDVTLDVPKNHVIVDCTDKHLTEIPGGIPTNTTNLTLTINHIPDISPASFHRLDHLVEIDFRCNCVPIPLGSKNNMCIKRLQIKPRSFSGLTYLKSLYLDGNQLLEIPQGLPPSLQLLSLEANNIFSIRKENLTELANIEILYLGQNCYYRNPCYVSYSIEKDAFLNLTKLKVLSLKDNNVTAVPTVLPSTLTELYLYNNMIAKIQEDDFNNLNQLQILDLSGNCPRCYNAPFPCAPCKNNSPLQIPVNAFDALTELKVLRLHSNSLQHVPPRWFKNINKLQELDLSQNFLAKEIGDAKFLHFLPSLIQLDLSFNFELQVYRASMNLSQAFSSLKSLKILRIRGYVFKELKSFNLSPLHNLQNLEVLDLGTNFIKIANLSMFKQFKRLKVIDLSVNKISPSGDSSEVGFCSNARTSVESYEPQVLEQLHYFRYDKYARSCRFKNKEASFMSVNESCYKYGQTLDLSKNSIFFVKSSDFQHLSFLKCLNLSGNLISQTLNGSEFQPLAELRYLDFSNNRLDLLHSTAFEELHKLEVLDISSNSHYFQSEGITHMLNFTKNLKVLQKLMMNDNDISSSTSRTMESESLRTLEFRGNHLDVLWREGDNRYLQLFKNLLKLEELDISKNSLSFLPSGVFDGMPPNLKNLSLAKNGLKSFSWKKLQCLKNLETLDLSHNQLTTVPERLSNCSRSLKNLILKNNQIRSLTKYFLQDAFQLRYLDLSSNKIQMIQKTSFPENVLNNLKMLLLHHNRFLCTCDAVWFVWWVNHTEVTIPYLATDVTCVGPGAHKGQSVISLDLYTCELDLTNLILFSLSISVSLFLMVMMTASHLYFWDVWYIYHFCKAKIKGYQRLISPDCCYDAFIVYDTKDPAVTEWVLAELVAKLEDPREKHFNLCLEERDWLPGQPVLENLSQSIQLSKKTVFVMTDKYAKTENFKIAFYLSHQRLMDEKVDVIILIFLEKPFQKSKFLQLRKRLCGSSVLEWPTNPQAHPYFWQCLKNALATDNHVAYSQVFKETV
Outline: as §1

| SMILES | EC50 (TLR9) [nM] | EC50 (TLR7) [nM] |
| --- | --- | --- |
| Cc1cc(-c2[nH]c3cc(-c4ccc(N5CCN(CC(F)F)CC5)nc4)ccc3c2C)cc(C)n1 [Example 141, 6-(6-(4-(2,2-difluoroethyl)piperazin-1-yl)pyridin-3-yl)-2-(2,6-dimethylpyridin-4-yl)-3-methyl-1H-indole] | 120 | > 1000 |
| Cc1cc(-c2[nH]c3cc(-c4ccc(N5CCN(CC(F)(F)F)CC5)nc4)ccc3c2C)cc(C)n1 [Example 142] | 1370 | > 1000 |
| Cc1cc(-c2[nH]c3cc(-c4ccc(N5CCN(CCO)CC5)nc4)ccc3c2C2CC2)cc(C)n1 [Example 143] | 124 | 3.4 |
| Cc1cc(-c2[nH]c3cc(-c4ccc(N5CCN6CC(F)(F)C[C@H]6C5)nc4)ccc3c2C)cc(C)n1 [Example 144] | 727 | > 1000 |
| Cc1cc(-c2[nH]c3cc(-c4ccc(C(=O)N5CCC(N)CC5)nc4)ccc3c2C)cc(C)n1 [Example 145, (4-aminopiperidin-1-yl)(5-(2-(2,6-dimethylpyridin-4-yl)-3-methyl-1H-indol-6-yl)pyridin-2-yl)methanone] | 277 | 48.8 |
| Cc1cc(-c2[nH]c3cc(-c4csc(N5CCNCC5)n4)ccc3c2C)cc(C)n1 [Example 146, 4-[2-(2,6-dimethyl-4-pyridyl)-3-methyl-1H-indol-6-yl]-2-piperazin-1-yl-thiazole] | 37.4 | 119 |
| Cc1cc(-c2[nH]c3cc(-c4ccc5[nH]c(C6CCNCC6)nc5c4)ccc3c2C)cc(C)n1 [Example 147, 5-[2-(2,6-dimethyl-4-pyridyl)-3-methyl-1H-indol-6-yl]-2-(4-piperidyl)-1H-benzimidazole] | 1350 | > 1000 |
| Cc1cc(-c2[nH]c3cc(-c4ccc5c(c4)ncn5C4CCNCC4)ccc3c2C)cc(C)n1 [Example 148, 5-[2-(2,6-dimethyl-4-pyridyl)-3-methyl-1H-indol-6-yl]-1-(4-piperidyl)benzimidazole] | 142 | 11.8 |
| Cc1cc(-c2[nH]c3cc(-c4ccc(N5CCNCC5)nc4)cnc3c2C)cc(C)n1 [Example 149, 2-(2,6-dimethyl-4-pyridyl)-3-methyl-6-(6-piperazin-1-yl-3-pyridyl)-1H-pyrrolo[3,2-b]pyridine] | 188 | 1260 |
| Cc1cc(-c2[nH]c3nc(-c4ccc(N5CCNCC5)nc4)ccc3c2C)cc(C)n1 [Example 150] | 72.3 | 760 |
| Cc1cc(-c2[nH]c3cc(-c4ccc(N5CCNCC5)nc4)ncc3c2C)cc(C)n1 [Example 151] | 537 | 867 |
| Cc1cc(-c2[nH]c3nc(C4CCNCC4)ccc3c2C)cc(C)n1 [Example 152, 2-(2,6-dimethyl-4-pyridyl)-3-methyl-6-(4-piperidyl)-1H-pyrrolo[2,3-b]pyridine] | 178 | 1420 |
| Cc1c(-c2cc(C)c3ncnn3c2)[nH]c2nc(C3CCNCC3)ccc12 [Example 153] | 1580 | 108 |
| Cc1cc(-c2[nH]c3cc(-c4ccc5nc([C@@H]6CCCNC6)[nH]c5c4)ccc3c2C)cc(C)n1 [Example 160] | 566 | 30.7 |
| Cc1cc(-c2[nH]c3cc(-c4ccc(C5=CCCNC5)nc4)ccc3c2C)cc(C)n1 [Example 162] | 30 | 9.1 |
| Cc1cc(-c2[nH]c3cc(-c4ccc(C5CCN(CCO)CC5)nc4)ccc3c2C)cc(C)n1 [Example 163] | 47.1 | 24.2 |
| Cc1cc(-c2[nH]c3cc(-c4ccc5nc([C@H]6CCCCN6)[nH]c5c4)ccc3c2C)cc(C)n1 [Example 164] | 49.1 | 22.8 |
| Cc1cc(-c2[nH]c3cc(-c4ccc5ncn(C6CCNCC6)c5c4)ccc3c2C)cc(C)n1 [Example 166] | 522 | 144 |
| Cc1cc(-c2[nH]c3cc(C(=O)NC4CCNCC4)ccc3c2C)cc(C)n1 [Example 178, 2-(2,6-dimethylpyridin-4-yl)-3-methyl-N-(piperidin-4-yl)-1H-indole-6-carboxamide] | 1880 | > 1000 |

The remaining lines, values ahead:

| EC50 (TLR9) [nM] | EC50 (TLR7) [nM] | SMILES |
| --- | --- | --- |
| 211 | 334 | Cc1cc(-c2[nH]c3cc(C(=O)N[C@H]4CCCNC4)ccc3c2C)cc(C)n1 [Example 179] |
| 835 | > 1000 | Cc1cc(-c2[nH]c3cc(C(=O)N4CCC5(CCNCC5)CC4)ccc3c2C)cc(C)n1 [Example 180] |
| 35.2 | 48.3 | Cc1cc(-c2[nH]c3cc(-c4cnc5c(c4)CCNC5)ccc3c2C)cc(C)n1 [Example 181, 3-[2-(2,6-dimethyl-4-pyridyl)-3-methyl-1H-indol-6-yl]-5,6,7,8-tetrahydro-1,7-naphthyridine] |
| 47.1 | 59.6 | Cc1cc(-c2[nH]c3cc(-c4ccc5c(n4)CCNC5)ccc3c2C)cc(C)n1 [Example 182] |
| 785 | 323 | Cc1cc(-c2[nH]c3cc(-c4cnn(CC5CCNCC5)c4)ccc3c2C)cc(C)n1 [Example 183] |
| 268 | 16.9 | Cc1cc(-c2[nH]c3cc(-c4cnn(C5CC6CCC(C5)N6)c4)ccc3c2C)cc(C)n1 (centres unmarked) [Example 184] |
| 54.3 | 37.4 | Cc1cc(-c2[nH]c3cc(-c4nc(N5CCNCC5)cs4)ccc3c2C)cc(C)n1 [Example 185, 2-(2-(2,6-dimethylpyridin-4-yl)-3-methyl-1H-indol-6-yl)-4-(piperazin-1-yl)thiazole] |
| 225 | 121 | Cc1cc(-c2[nH]c3cc(-c4nc(C5CCNCC5)cs4)ccc3c2C)cc(C)n1 [Example 186, 2-(2-(2,6-dimethylpyridin-4-yl)-3-methyl-1H-indol-6-yl)-4-(piperidin-4-yl)thiazole] |
| 469 | 171 | Cc1cc(-c2[nH]c3cc(-c4ccc5c(c4)[nH]c(=O)n5C4CCNCC4)ccc3c2C)cc(C)n1 [Example 187, 6-[2-(2,6-dimethyl-4-pyridyl)-3-methyl-1H-indol-6-yl]-3-(4-piperidyl)-1H-benzimidazol-2-one] |
| 175 | 270 | Cc1cc(-c2[nH]c3cc(-c4nc(N5CCNCC5)no4)ccc3c2C)cc(C)n1 [Example 188, 5-[2-(2,6-dimethyl-4-pyridyl)-3-methyl-1H-indol-6-yl]-3-piperazin-1-yl-1,2,4-oxadiazole] |
| 217 | 108 | Cc1cc(-c2[nH]c3cc(-c4nc(C5CCNCC5)no4)ccc3c2C)cc(C)n1 [Example 189] |
| 55 | 16 | Cc1cc(-c2[nH]c3cc(-c4nnc(C5CCNCC5)o4)ccc3c2C)cc(C)n1 [Example 190, 2-[2-(2,6-dimethyl-4-pyridyl)-3-methyl-1H-indol-6-yl]-5-(4-piperidyl)-1,3,4-oxadiazole] |
